Assay results taken from patent US10745382B2 (BRISTOL-MYERS SQUIBB COMPANY, priority 2015, dated 2020).

molecular target: T1, PD-1/PD-L1 (Homo sapiens, UniProt Q9NZQ7); experiment: PD-1/PD-L1 Homogenous Time-Resolved Fluorescence (HTRF) binding assay; conditions: PD-L1-His 10 nM, PD-1-Ig 20 nM; numeric IC50; read-out: Range or IC50
T1 construct: made in house; host or cells: HEK293T
Outline: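 Detection by europium cryptate anti-Ig plus APC anti-His (1 nM and 20 nM final) with HTRF signal. Buffer was dPBS, 0.1% BSA, 0.05% Tween-20.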

T1 sequence (Q9NZQ7 with tags, fused parts or gaps): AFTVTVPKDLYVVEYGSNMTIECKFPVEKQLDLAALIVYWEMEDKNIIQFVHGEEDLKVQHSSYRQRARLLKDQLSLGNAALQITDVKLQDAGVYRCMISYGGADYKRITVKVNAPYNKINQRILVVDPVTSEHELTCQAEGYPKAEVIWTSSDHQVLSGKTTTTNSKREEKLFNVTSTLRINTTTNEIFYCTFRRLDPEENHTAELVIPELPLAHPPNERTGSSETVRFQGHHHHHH

IC50 [nM]	SMILES
26	Cc1c(COc2cc(OCc3cncc(C#N)c3)c(CN3CCCC[C@H]3C(=O)O)cc2Cl)cccc1-c1cccc(OCC(=O)N2CC[C@@H](O)C2)c1 [Example 1007, (S)-1-(5-chloro-2-((5-cyanopyridin-3-yl)methoxy)-4-((3′-(2-((R)-3-hydroxypyrrolidin-1-yl)-2-oxoethoxy)-2-methyl-[1,1′-biphenyl]-3-yl)methoxy)benzyl)piperidine-2-carboxylic Acid]

same assay, conditions: PD-L1-His 10 nM, PD-1-Ig 20 nM; value given as range class; read-out: Range or IC50

SMILES	IC50 [nM]
CCOC(=O)C1(O)CCN(CCCOc2cccc(-c3cccc(COc4cc(OCc5cncc(C#N)c5)c(CN5CCCC[C@H]5C(=O)O)cc4Cl)c3C)c2Cl)CC1 [Example 1100, (S)-1-(5-chloro-4-((2′-chloro-3′-(3-(4-(ethoxycarbonyl)-4-hydroxypiperidin-1-yl)propoxy)-2-methyl-[1,1′-biphenyl]-3-yl)methoxy)-2-((5-cyanopyridin-3-yl)methoxy)benzyl)piperidine-2-carboxylic Acid]	0.21 to 10
Cc1c(COc2cc(OCc3cncc(C#N)c3)c(CN3CCCC[C@H]3C(=O)O)cc2Cl)cccc1-c1ccc2c(c1)OC(CCN1CC[C@@H](O)C1)CO2 (single isomer, unassigned) [Example 1505]	0.21 to 10
Cc1c(COc2cc(OCc3cncc(S(C)(=O)=O)c3)c(CN[C@](C)(CO)C(=O)O)cc2Cl)cccc1-c1cccc(OCCCN2CC[C@@H](O)C2)c1C [Example 1026, (R)-2-((5-chloro-4-((3′-(3-((R)-3-hydroxypyrrolidin-1-yl)propoxy)-2,2′-dimethyl-[1,1′-biphenyl]-3-yl)methoxy)-2-((5-(methylsulfonyl)pyridin-3-yl)methoxy)benzyl)amino)-3-hydroxy-2-methylpropanoic Acid]	0.21 to 10
Cc1c(COc2cc(OCc3cncc(C#N)c3)c(CN[C@@H](CO)C(=O)O)cc2Cl)cccc1-c1cccc(OCCCNC[C@H](O)CO)c1Cl [Example 2004, (S)-2-((5-chloro-4-((2′-chloro-3′-(3-(((S)-2,3-dihydroxypropyl)amino)propoxy)-2-methyl-[1,1′-biphenyl]-3-yl)methoxy)-2-((5-cyanopyridin-3-yl)methoxy)benzyl)amino)-3-hydroxypropanoic Acid]	0.21 to 10
Cc1c(COc2cc(OCc3cncc(C#N)c3)c(CN3CCN(CCO)CC3)cc2Cl)cccc1-c1cccc(OCCCN2CCN(CCO)CC2)c1Cl [Example 2011, 5-((4-chloro-5-((2′-chloro-3′-(3-(4-(2-hydroxyethyl)piperazin-1-yl)propoxy)-2-methyl-[1,1′-biphenyl]-3-yl)methoxy)-2-((4-(2-hydroxyethyl)piperazin-1-yl)methyl)phenoxy)methyl)nicotinonitrile]	0.21 to 10
Cc1c(COc2cc(OCc3cncc(C#N)c3)c(CN3CCCC[C@H]3C(=O)O)cc2Cl)cccc1-c1cccc(OCCCN2CC[C@@H](O)C2)c1F [Example 1520, (S)-1-(5-chloro-2-((5-cyanopyridin-3-yl)methoxy)-4-((2′-fluoro-3′-(3-((R)-3-hydroxypyrrolidin-1-yl)propoxy)-2-methyl-[1,1′-biphenyl]-3-yl)methoxy)benzyl)piperidine-2-carboxylic acid]	0.21 to 10
Cc1c(COc2cc(OCc3cncc(C#N)c3)c(CN3CCCC[C@H]3C(=O)O)cc2Cl)cccc1-c1cccc(OCC(CO)(CO)CO)c1Cl [Example 2084, (S)-1-(5-chloro-4-((2′-chloro-3′-(3-hydroxy-2,2-bis(hydroxymethyl)propoxy)-2-methyl-[1,1′-biphenyl]-3-yl)methoxy)-2-((5-cyanopyridin-3-yl)methoxy)benzyl)piperidine-2-carboxylic Acid]	100 to 2000
Cc1c(COc2cc(OCc3cncc(C#N)c3)c(CN(C)CCC(N)=O)cc2Cl)cccc1-c1cccc(OCCCN(C)CCC(N)=O)c1C [Example 2266, 3-((3-(3′-((4-(((3-amino-3-oxopropyl)(methyl)amino)methyl)-2-chloro-5-((5-cyanopyridin-3-yl)methoxy)phenoxy)methyl)-2,2′-dimethylbiphenyl-3-yloxy)propyl)(methyl)amino)propanamide]	0.21 to 10
Cc1c(COc2cc(OCc3cncc(C#N)c3)c(CN[C@H](CO)C(=O)O)cc2Cl)cccc1-c1cccc(OCCCN2CCC(O)CC2)c1C [Example 1060, (R)-2-((5-chloro-2-((5-cyanopyridin-3-yl)methoxy)-4-((3′-(3-(4-hydroxypiperidin-1-yl)propoxy)-2,2′-dimethyl-[1,1′-biphenyl]-3-yl)methoxy)benzyl)amino)-3-hydroxypropanoic Acid]	0.21 to 10
CC(=O)N[C@@H]1CCN(CCCOc2cccc(-c3cccc(COc4cc(OCc5cncc(C#N)c5)c(CN5CCCC[C@H]5C(=O)O)cc4Cl)c3C)c2C)C1 [Example 2250, (2S)-1-(4-((3′-(3-((R)-3-acetamidopyrrolidin-1-yl)propoxy)-2,2′-dimethylbiphenyl-3-yl)methoxy)-5-chloro-2-((5-cyanopyridin-3-yl)methoxy)benzyl)piperidine-2-carboxylic Acid]	0.21 to 10
Cc1c(COc2cc(OCc3cncc(C#N)c3)c(CO)cc2Cl)cccc1-c1cccc(OCCCN2CC(N(C)C)C2)c1Cl [Example 2015, 5-((4-chloro-5-((2′-chloro-3′-(3-(3-(dimethylamino)azetidin-1-yl)propoxy)-2-methyl-[1,1′-biphenyl]-3-yl)methoxy)-2-(hydroxymethyl)phenoxy)methyl)nicotinonitrile]	0.21 to 10
Cc1c(COc2cc(OCc3cncc(S(C)(=O)=O)c3)c(CN3CCCC[C@H]3C(=O)O)cc2Cl)cccc1-c1cccc(OCCCN2C[C@H](O)C[C@H]2C(=O)O)c1Cl [Example 1081, (S)-1-(4-((3′-(3-((2S,4R)-2-carboxy-4-hydroxypyrrolidin-1-yl)propoxy)-2′-chloro-2-methyl-[1,1′-biphenyl]-3-yl)methoxy)-5-chloro-2-((5-(methylsulfonyl)pyridin-3-yl)methoxy)benzyl)piperidine-2-carboxylic Acid]	0.21 to 10

Second part, the molecule after the results:

IC50 [nM]	SMILES
0.21 to 10	Cc1c(COc2cc(OCc3cncc(C#N)c3)c(CN[C@@](C)(CO)C(=O)O)cc2Cl)cccc1-c1cccc(OCC2(CN3CC[C@@H](O)C3)CC2)c1C [Example 2348, (S)-2-((5-chloro-2-((5-cyanopyridin-3-yl)methoxy)-4-((3′-((1-(((R)-3-hydroxypyrrolidin-1-yl)methyl)cyclopropyl)methoxy)-2,2′-dimethyl-[1,1′-biphenyl]-3-yl)methoxy)benzyl)amino)-3-hydroxy-2-methylpropanoic Acid]
0.21 to 10	Cc1c(COc2cc(OCc3cc(Cl)cc(Cl)c3)c(CNC(CO)(CO)CO)cc2Cl)cccc1-c1cccc(OCCCN2CC[C@@H](O)C2)c1C [Example 4502, (R)-2-((5-chloro-2-((3,5-dichlorobenzyl)oxy)-4-((3′-(3-(3-hydroxypyrrolidin-1-yl)propoxy)-2,2′-dimethyl-[1,1′-biphenyl]-3-yl)methoxy)benzyl)amino)-2-(hydroxymethyl)propane-1,3-diol]
0.21 to 10	Cc1ccc(COc2cc(OCc3cccc(-c4cccc(OCCCN5CC[C@@H](O)C5)c4C)c3C)c(Cl)cc2CN2CCCC[C@H]2C(=O)O)cc1C [Example 4508, (S)-1-(5-chloro-2-((3,4-dimethylbenzyl)oxy)-4-((3′-(3-((R)-3-hydroxypyrrolidin-1-yl)propoxy)-2,2′-dimethyl-[1,1′-biphenyl]-3-yl)methoxy)benzyl)piperidine-2-carboxylic Acid]
0.21 to 10	Cc1c(COc2cc(OCc3cncc(C#N)c3)c(C(C)N(C)C(CO)CO)cc2Cl)cccc1-c1cccc(OCCCN2CC[C@@H](O)C2)c1C (stereo partly drawn) [Example 4140, 5-((4-chloro-2-(1-((1,3-dihydroxypropan-2-yl)(methyl)amino)ethyl)-5-((3′-(3-((R)-3-hydroxypyrrolidin-1-yl)propoxy)-2,2′-dimethyl-[1,1′-biphenyl]-3-yl)methoxy)phenoxy)methyl)nicotinonitrile]
0.21 to 10	Cc1c(COc2cc(OCc3cncc(C#N)c3)c(CN[C@H](C(=O)O)c3ccccc3)cc2Cl)cccc1-c1cccc(OCCCN2CC[C@@H](O)C2)c1C [Example 4156, (S)-2-((5-chloro-2-((5-cyanopyridin-3-yl)methoxy)-4-((3′-(3-((R)-3-hydroxypyrrolidin-1-yl)propoxy)-2,2′-dimethyl-[1,1′-biphenyl]-3-yl)methoxy)benzyl)amino)-2-phenylacetic Acid]
100 to 2000	Cc1c(COc2cc(OCc3cncc(C#N)c3)c(CN3C[C@H](O)C[C@H]3C(=O)O)cc2Cl)cccc1-c1cccc(C(=O)N2CCOCC2)c1C [Example 4050, (2S,4R)-1-(5-chloro-2-((5-cyanopyridin-3-yl)methoxy)-4-((2,2′-dimethyl-3′-(morpholine-4-carbonyl)-[1,1′-biphenyl]-3-yl)methoxy)benzyl)-4-hydroxypyrrolidine-2-carboxylic Acid]
10 to 100	Cc1c(COc2cc(OCc3cncc(C#N)c3)c(C(=O)N3CCCC[C@H]3C(=O)O)cc2Cl)cccc1-c1cccc(OCCCN2CC[C@@H](O)C2)c1C [Example 2380, (S)-1-(5-chloro-2-((5-cyanopyridin-3-yl)methoxy)-4-((3′-(3-((R)-3-hydroxypyrrolidin-1-yl)propoxy)-2,2′-dimethyl-[1,1′-biphenyl]-3-yl)methoxy)benzoyl)piperidine-2-carboxylic Acid]
0.21 to 10	Cc1c(COc2cc(OCc3cncc(C#N)c3)c(CN(CCO)[C@@](C)(CO)C(=O)O)cc2Cl)cccc1-c1cccc(OCCCN2CC[C@@H](O)C2)c1C [Example 4111, (S)-2-((5-chloro-2-((5-cyanopyridin-3-yl)methoxy)-4-((3′-(3-((R)-3-hydroxypyrrolidin-1-yl)propoxy)-2,2′-dimethyl-[1,1′-biphenyl]-3-yl)methoxy)benzyl)(2-hydroxyethyl)amino)-3-hydroxy-2-methylpropanoic Acid]
